Source: patent US6528095B1, “Anti-atherosclerotic and anti-thrombotic agent and the use thereof” (Potchefstroom University for Christian Higher Education, priority 2000, dated 2003)

What was measured:
blood lipids = assay: Supplementation in human males: lipid variables; assay type: in vivo; settings: for TC: total cholesterol; for TG: triglycerides
Description: (§1) The respective effects of pectin and an acetate when administered to the colon of a mammal were determined during a first experiment. The experiment was conducted in the following two phases: [drawing 1]
(§2) Twenty human males participated in the experimentation and these subjects were not on any medication for any chronic diseases at the time, and also had no history of cardiovascular disease. All the subjects were at the time following a relatively high fibre, low fat diet. During the first phase ten subjects consumed a total of 15 grams of pectin per day in four aliquots, while the other ten consumed a total of 15 grams of placebo (starch) per day in four aliquots.
(§3) During the second phase, the first group consumed a total of 7.5 grams of calcium acetate per day in four aliquots and the second group consumed a total of 15 grams of pectin per day in four aliquots. The calcium acetate was administered in capsules which were coated with a protective coating comprising a resin known commercially as shellac. This protective coating is resistant to digestion and solution in the stomach and small intestines, is but not resistant to the enzymes of the organisms usually found in the colon, so that the calcium acetate was thus released in the colon.
(§4) Blood samples where taken from the subjects after each phase and a large number of variables where tested.

fibrin clot = assay: Supplementation in human males: haemostatic variables and characteristics of fibrin networks developed in plasma; assay type: in vivo; settings: for CLOT (FIBRIN): clot fibrin content; for LYSIS TIME (t 50%): clot; for COMPACTION: fibrin clot; for MPC: macromolecular protein complex; for μ,: mass length ratio from turbidity; for FIBRINOGEN: plasma
Description: as §1, §2, §3, §4

[1] = Pectin / calcium acetate supplementation in human males: body weight and BMI; assay type: in vivo
Description: The acetate supplement (phase 2), however, caused a decrease (from 88.16±12.35 kg to 83.09±10.80 kg) in body weight. Although this decrease may not be of statistical significance, it can be clinically significant in the cases of those subjects who lost weight.

[2] = Supplementation in human males: metabolic variables; settings: for FFA: free fatty acids; for IR: insulin resistance; for TP: total protein
Description: as §1, §2, §3, §4

[3] = Supplementation in human males: haemorheological variables (haematocrit, haemoglobin, plasma viscosity); assay type: in vivo; settings: for VISCOSITY: plasma
Description: as §1, §2, §3, §4

[4] = Pectin / calcium acetate supplementation in human males: body weight and BMI; assay type: in vivo; remark: listed apart in the source
[5] = phase 1, end of supplementation (pectin 15 g/day)
[6] = phase 2, end of supplementation (pectin 15 g/day; calcium acetate 7.5 g/day)

## pectin
Blood lipids; pectin supplementation
  decrease in hydrogen peroxide (free radical) content of blood lipids: 49%
Blood lipids; phase 1, baseline
  % HDL-C: 18.30%
  ApoA: 1.60 mmol/L
  ApoB: 1.70 mmol/L
  HDL-C: 1.20 mmol/L
  LDL-C: 4.70 mmol/L
  TBARM: 0.60 µM
  hydrogen peroxide (H2O2): 1.70 µM
  TC: 6.50 mmol/L
  TG: 2.00 mmol/L
Blood lipids; [5]
  % HDL-C: 18.20 ± %
  ApoA: 1.23 ± mmol/l
  ApoB: 1.29 ± mmol/l
  HDL-C: 1.03 ± mmol/l
  LDL-C: 4.10 ± mmol/l
  TBARM: 0.30 µM
  hydrogen peroxide (H2O2): 0.84 ± μM
  TC: 5.67 ± mmol/l
  TG: 1.78 mmol/L
Blood lipids; phase 2, baseline
  % HDL-C: 15.46%
  ApoA: 1.53 mmol/L
  ApoB: 1.77 mmol/L
  HDL-C: 0.92 mmol/L
  LDL-C: 5.17 mmol/L
  TBARM: 2.06 µM
  hydrogen peroxide (H2O2): 1.20 µM
  TC: 6.89 mmol/L
  TG: 1.99 mmol/L
Blood lipids; [6]
  % HDL-C: 18.79 ± %
  ApoA: 1.39 ± mmol/l
  ApoB: 1.39 ± mmol/l
  HDL-C: 1.13 ± mmol/l
  LDL-C: 4.59 mmol/L
  TBARM: 0.61 ± μM
  hydrogen peroxide (H2O2): 0.73 ± μM
  TC: 6.07 mmol/L
  TG: 1.78 mmol/L
Fibrin clot; phase 1, baseline
  CLOT (FIBRIN): 2.22 g/L
  LYSIS TIME (t 50%): 285.6
  COMPACTION: 21.51%
  MPC: 0.1218 g/L
  μ,: 19.94 Dal/cm × 10^12
  FIBRINOGEN: 3.51 g/L
Fibrin clot; [5]
  CLOT (FIBRIN): 1.90 ± g/l
  LYSIS TIME (t 50%): 232.9 ±
  COMPACTION: 30.16 ± %
  MPC: 0.0836 ± g/l
  μ,: 24.80 ± Dal/cm × 10^12
  FIBRINOGEN: 3.30 g/L
Fibrin clot; phase 2, baseline
  CLOT (FIBRIN): 2.55 g/L
  LYSIS TIME (t 50%): 285.6
  COMPACTION: 20.67%
  MPC: 0.1002 g/L
  μ,: 19.02 Dal/cm × 10^12
  FIBRINOGEN: 4.11 g/L
Fibrin clot; [6]
  CLOT (FIBRIN): 1.86 ± g/l
  LYSIS TIME (t 50%): 132.9 ±
  COMPACTION: 31.53 ± %
  MPC: 0.0807 ± g/l
  μ,: 32.10 ± Dal/cm × 10^12
  FIBRINOGEN: 3.72 g/L
[1]; phase 2, baseline
  BMI: 29.46 kg/m^2
  BODY WEIGHT: 92.07 kg
[1]; [6]
  BMI: 29.32 kg/m^2
  BODY WEIGHT: 91.55 kg
[2]; phase 1, baseline
  FFA: 0.39 mmol/L
  IR: 4.29
  ALBUMIN: 47.23 g/L
  GLUCOSE: 3.98 mmol/L
  INSULIN: 10.95 μU/ml
  PPA/ALB: 8.26 × 10^1
  TP: 60.55 g/L
[2]; [5]
  FFA: 0.31 ± mmol/l
  IR: 4.16
  ALBUMIN: 47.79 g/L
  GLUCOSE: 3.72 mmol/L
  INSULIN: 11.25 μU/ml
  PPA/ALB: 6.49 ± × 10^1
  TP: 66.84 g/L
[2]; phase 2, baseline
  FFA: 0.48 mmol/L
  IR: 9.40
  ALBUMIN: 45.53 g/L
  GLUCOSE: 4.29 mmol/L
  INSULIN: 18.55 μU/ml
  PPA/ALB: 10.50 × 10^1
  TP: 72.36 g/L
[2]; [6]
  FFA: 0.40 ± mmol/l
  IR: 5.77
  ALBUMIN: 45.48 ± g/l
  GLUCOSE: 4.00 mmol/L
  INSULIN: 13.83 μU/ml
  PPA/ALB: 8.78 ± × 10^1
  TP: 75.21 g/L
[3]; phase 1, baseline
  HAEMATOCRIT: 48.70%
  HAEMOGLOBIN: 10.30 mmol/L
  VISCOSITY: 1.81 cP
[3]; [5]
  HAEMATOCRIT: 48.10%
  HAEMOGLOBIN: 9.60 ± mmol/l
  VISCOSITY: 1.60 ± cP
[3]; phase 2, baseline
  HAEMATOCRIT: 47.38%
  HAEMOGLOBIN: 10.82 mmol/L
  VISCOSITY: 1.75 cP
[3]; [6]
  HAEMATOCRIT: 45.39%
  HAEMOGLOBIN: 9.75 ± mmol/l
  VISCOSITY: 1.62 ± cP
[4]; pectin supplemented subject group
  weight reduction: No weight reduction
[4]; phase 1, baseline
  BMI: 27.50 kg/m^2
  BODY WEIGHT: 89.50 kg
[4]; [5]
  BMI: 27.40 kg/m^2
  BODY WEIGHT: 89.10 kg
